Reference: paper PMC5021961, “Generation of self-clusters of galectin-1 in the farnesyl-bound form” (Scientific Reports, 2016)

Target: T1, human galectin-1 (Gal-1) (Homo sapiens, UniProt P09382)
T1 construct: gene LGALS1
Assay: Trp68 fluorescence titration (equilibrium fit with Hill coefficient […]), fluorescence lifetime, UV resonance Raman, CD, native PAGE self-clustering
Assay type: binding

T1 sequence (P09382 2-135): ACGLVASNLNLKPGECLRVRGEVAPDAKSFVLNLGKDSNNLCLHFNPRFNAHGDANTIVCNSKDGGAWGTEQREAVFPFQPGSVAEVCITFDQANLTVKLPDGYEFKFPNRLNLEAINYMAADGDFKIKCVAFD

Q: `CC(C)=CCC/C(C)=C/CC/C(C)=C/CSc1ccccc1C(=O)O` [FTS, farnesyl thiosalicylic acid] was tested. Which Kd did it give?
A: ~2.3 µM
